Calls of active or inactive are those of the source. No cut-off for these calls is given here.
How the values were obtained:
[1] = system: Brassica rapa subsp. oleifera; experiment: Post-emergence herbicidal activity against one-leaf stage Brassica rapa subsp. oleifera under greenhouse condition assessed as complete bleaching of leaves at 600 g /ha measured after 24 days by spray method; type: functional, organism-based
[2] = system: Brassica rapa subsp. oleifera; experiment: Post-emergence herbicidal activity against one-leaf stage Brassica rapa subsp. oleifera under greenhouse condition at 75 g /ha measured after 24 days by spray method; type: functional; settings: 576 h, read-out: GI
[3] = system: Brassica rapa subsp. oleifera; experiment: Post-emergence herbicidal activity against one-leaf stage Brassica rapa subsp. oleifera under greenhouse condition at 150 g /ha measured after 24 days by spray method; type: functional; settings: 576 h, read-out: GI
[4] = system: Brassica rapa subsp. oleifera; experiment: Post-emergence herbicidal activity against one-leaf stage Brassica rapa subsp. oleifera under greenhouse condition at 300 g /ha measured after 24 days by spray method; type: functional; settings: 576 h, read-out: GI
[5] = system: Brassica rapa subsp. oleifera; experiment: Post-emergence herbicidal activity against one-leaf stage Brassica rapa subsp. oleifera under greenhouse condition at 600 g /ha measured after 24 days by spray method; type: functional; settings: 576 h, read-out: GI
[6] = system: Digitaria; experiment: Post-emergence herbicidal activity against one-leaf stage of Digitaria adscendens under greenhouse condition at 750 g /ha measured after 24 days by spray method; type: functional; settings: in Digitaria adscendens, 576 h, read-out: GI
[7] = system: Echinochloa crus-galli; experiment: Post-emergence herbicidal activity against one-leaf stage of Echinochloa crus-galli (barnyard grass) under greenhouse condition at 750 g /ha measured after 24 days by spray method; type: functional; settings: 576 h, read-out: GI
[8] = system: Amaranthus retroflexus; experiment: Post-emergence herbicidal activity against one-leaf stage of Amaranthus retroflexus under greenhouse condition at 750 g /ha measured after 24 days by spray method; type: functional; settings: 576 h, read-out: GI
[9] = system: Brassica rapa subsp. oleifera; experiment: Post-emergence herbicidal activity against one-leaf stage Brassica rapa subsp. oleifera under greenhouse condition at 750 g /ha measured after 24 days by spray method; type: functional; settings: 576 h, read-out: GI
[10] = system: Digitaria; experiment: Pre-emergence herbicidal activity against Digitaria adscendens under greenhouse condition at 750 g /ha measured after 24 days by spray method; type: functional; settings: in Digitaria adscendens, 576 h, read-out: GI
[11] = system: Echinochloa crus-galli; experiment: Pre-emergence herbicidal activity against Echinochloa crus-galli (barnyard grass) under greenhouse condition at 750 g /ha measured after 24 days by spray method; type: functional; settings: 576 h, read-out: GI
[12] = system: Amaranthus retroflexus; experiment: Pre-emergence herbicidal activity against Amaranthus retroflexus under greenhouse condition at 750 g /ha measured after 24 days by spray method; type: functional; settings: 576 h, read-out: GI
[13] = system: Brassica rapa subsp. oleifera; experiment: Pre-emergence herbicidal activity against Brassica rapa subsp. oleifera under greenhouse condition at 750 g /ha measured after 24 days by spray method; type: functional; settings: 576 h, read-out: GI
[14] = system: Spirodela polyrhiza; experiment: Bleaching herbicidal activity in Spirodela polyrhiza fronds cultured in compound-containing in medium assessed as chlorophyll inhibition at 1 ug/ml after 7 days; type: functional; settings: 168 h
[15] = system: Spirodela polyrhiza; experiment: Bleaching herbicidal activity in Spirodela polyrhiza fronds cultured in compound-containing in medium assessed as chlorophyll inhibition at 10 ug/ml after 7 days; type: functional; settings: 168 h
[16] = system: Amaranthus retroflexus; experiment: Post-emergence herbicidal activity against one-leaf stage Amaranthus retroflexus under greenhouse condition assessed as complete bleaching of leaves at 150 g /ha measured after 24 days by spray method; type: functional, organism-based
[17] = system: Amaranthus retroflexus; experiment: Post-emergence herbicidal activity against one-leaf stage Amaranthus retroflexus under greenhouse condition assessed as complete bleaching of leaves at 300 g /ha measured after 24 days by spray method; type: functional, organism-based
[18] = system: Amaranthus retroflexus; experiment: Post-emergence herbicidal activity against one-leaf stage Amaranthus retroflexus under greenhouse condition assessed as complete bleaching of leaves at 600 g /ha measured after 24 days by spray method; type: functional, organism-based
[19] = system: Brassica rapa subsp. oleifera; experiment: Post-emergence herbicidal activity against one-leaf stage Brassica rapa subsp. oleifera under greenhouse condition assessed as complete bleaching of leaves at 75 g /ha measured after 24 days by spray method; type: functional, organism-based
[20] = system: Brassica rapa subsp. oleifera; experiment: Post-emergence herbicidal activity against one-leaf stage Brassica rapa subsp. oleifera under greenhouse condition assessed as complete bleaching of leaves at 150 g /ha measured after 24 days by spray method; type: functional, organism-based
[21] = system: Brassica rapa subsp. oleifera; experiment: Post-emergence herbicidal activity against one-leaf stage Brassica rapa subsp. oleifera under greenhouse condition assessed as complete bleaching of leaves at 300 g /ha measured after 24 days by spray method; type: functional, organism-based
[22] = system: Amaranthus retroflexus; experiment: Post-emergence herbicidal activity against one-leaf stage Amaranthus retroflexus under greenhouse condition at 75 g /ha measured after 24 days by spray method; type: functional; settings: 576 h, read-out: GI
[23] = system: Amaranthus retroflexus; experiment: Post-emergence herbicidal activity against one-leaf stage Amaranthus retroflexus under greenhouse condition at 150 g /ha measured after 24 days by spray method; type: functional; settings: 576 h, read-out: GI
[24] = system: Amaranthus retroflexus; experiment: Post-emergence herbicidal activity against one-leaf stage Amaranthus retroflexus under greenhouse condition at 300 g /ha measured after 24 days by spray method; type: functional; settings: 576 h, read-out: GI
[25] = system: Amaranthus retroflexus; experiment: Post-emergence herbicidal activity against one-leaf stage Amaranthus retroflexus under greenhouse condition at 600 g /ha measured after 24 days by spray method; type: functional; settings: 576 h, read-out: GI

SMILES | Activity [1] | inhibition of growth at 75 g/ha [2] [%] | inhibition of growth at 150 g/ha [3] [%] | inhibition of growth at 300 g/ha [4] [%] | inhibition of growth at 600 g/ha [5] [%] | inhibition of growth at 750 g/ha [6] [%] | inhibition of growth at 750 g/ha [7] [%] | inhibition of growth at 750 g/ha [8] [%] | inhibition of growth at 750 g/ha [9] [%] | inhibition of growth at 750 g/ha [10] [%] | inhibition of growth at 750 g/ha [11] [%] | inhibition of growth at 750 g/ha [12] [%] | inhibition of growth at 750 g/ha [13] [%] | inhibition at 1 µg/mL [14] [%] | inhibition at 10 µg/mL [15] [%] | Activity [17] | Activity [18] | Activity [19] | Activity [20] | Activity [21] | also measured
Cc1cc(-c2cccc(C(F)(F)F)c2)c(Oc2ccccc2)nn1 | Active | 38 | 53 | 56 | 75 | 88 | 26 | 75 | 99 | 87 | 0 | 0 | 0 | 68 | 75 | Active | Active | Active | Active | Active | Activity [16]: Active; inhibition of growth at 75 g/ha [22]: 22%; inhibition of growth at 150 g/ha [23]: 36%; inhibition of growth at 300 g/ha [24]: 64%; inhibition of growth at 600 g/ha [25]: 96%
Cc1cc(-c2cccc(C(F)(F)F)c2)c(Oc2cc(F)cc(F)c2)nn1 | Active | 55 | 65 | 78 | 82 | 48 | 57 | 100 | 80 | 100 | 51 | 96 | 65 | 80 | 84 | Active | Active | Active | Active | Active | Activity [16]: Active; inhibition of growth at 75 g/ha [22]: 31%; inhibition of growth at 150 g/ha [23]: 96%; inhibition of growth at 300 g/ha [24]: 98%; inhibition of growth at 600 g/ha [25]: 100%
Cc1cc(-c2cccc(C(F)(F)F)c2)c(Oc2ccccc2Cl)nn1 | Active | 31 | 48 | 67 | 91 | 27 | 24 | 84 | 100 | 19 | 0 | 0 | 9 | 42 | 50 | Active | Active | Active | Active | Active | inhibition of growth at 75 g/ha [22]: 5%; inhibition of growth at 150 g/ha [23]: 20%; inhibition of growth at 300 g/ha [24]: 39%; inhibition of growth at 600 g/ha [25]: 65%
Cc1cc(-c2cccc(C(F)(F)F)c2)c(OCc2ccccc2C)nn1 | Active | 44 | 79 | 86 | 95 | 7 | 55 | 29 | 97 | 19 | 2 | 36 | 58 | 62 | 86 |  |  | Active | Active | Active | 
Cc1cc(-c2cccc(C(F)(F)F)c2)c(OCc2ccccc2)nn1 | Active |  | 62 | 86 | 92 | 0 | 29 | 50 | 94 | 7 | 27 | 38 | 55 | 62 | 82 |  |  |  | Active | Active | 
Cc1cc(-c2cccc(C(F)(F)F)c2)c(OCc2cccc(F)c2)nn1 | Active |  | 30 | 47 | 66 | 0 | 14 | 47 | 93 | 10 | 18 | 9 | 0 | 89 | 96 |  |  |  | Active | Active | 
Cc1cc(-c2cccc(C(F)(F)F)c2)c(OCc2ccccc2Br)nn1 | Active |  | 49 | 73 | 85 | 3 | 0 | 54 | 91 | 25 | 1 | 21 | 8 | 93 | 100 |  |  |  | Active | Active | 

— ChEMBL document CHEMBL3045111, “Synthesis and herbicidal activities of novel 3-(substituted benzyloxy or phenoxy)-6-methyl-4-(3-trifluoromethylphenyl)pyridazine derivatives” (2012)
